Results from patent US11217811B2, “Unique redox-active phenothiazine combinations with depressed melting points for increased solubility and method of use in energy storage and in redox flow batteries” (University of Kentucky Research Foundation, priority 2019, dated 2022).
Converted amounts (≈) assume the structure as drawn. Like-named read-outs stand apart in the source and are kept apart here.

Test: Solubility in acetonitrile, determined by 1H NMR spectroscopy
Assay type: physicochemical
Procedure: The solubility of each of such mixtures was determined according to the following procedure: acetonitrile was added to the vials containing the samples in aliquots ranging from 0.1 to 1 mL; after every aliquot of solvent was added, each sample was shaken, sonicated, and lightly warmed up with a heat gun (about 40° C.); if the suspended solid persisted, another aliquot was added, and the process repeated until a clear solution was obtained. The warm solution was left to cool down to room temperature: if any solid formed, more solvent was added, and the process repeated until the solution remained clear indefinitely. The solubility was then determined using ^1H NMR spectroscopy. […] The results are summarized in Table 1: in both the cases examined, the solubility of EPT increased substantially when mixed with MEPT.

[1] = organic solvent or mixture, thermodynamic from solid, pure compound in acetonitrile, room temperature, read-out: Solubility of the single component
[2] = pure compound in acetonitrile, room temperature
[3] = acetonitrile, RPT-TFSI and the corresponding binary blend

solubility [1] [mM] | SMILES | solubility [3] [mM] | also measured
110 (≈ 25 mg/mL) | CCN1c2ccccc2Sc2ccccc21 [EPT, N-ethylphenothiazine] | – | –
– | CCN1c2ccccc2[S+]c2ccccc21.F[B-](F)(F)F [EPT-BF4, EPT-tetrafluoroborate] | – | Solubility of the single component [2]: 330 mM
– | CCN1c2ccccc2[S+]c2ccccc21.O=S(=O)([N-]S(=O)(=O)C(F)(F)F)C(F)(F)F [EPT-TFSI, EPT-bis(trifluoromethanesulfonyl)imide] | 370 | –
– | COCCN1c2ccccc2Sc2ccccc21 [MEPT, N-(2-methoxyethyl)phenothiazine] | – | Miscibility in acetonitrile (acetonitrile): miscible in acetonitrile in all ratios
– | COCCN1c2ccccc2[S+]c2ccccc21.F[B-](F)(F)F [MEPT-BF4, MEPT-tetrafluoroborate] | – | Solubility of the single component [2]: 310 mM
240 (≈ 51.2 mg/mL) | CN1c2ccccc2Sc2ccccc21 [MPT, N-methylphenothiazine] | – | –
– | CN1c2ccccc2[S+]c2ccccc21.O=S(=O)([N-]S(=O)(=O)C(F)(F)F)C(F)(F)F [MPT-TFSI, MPT-bis(trifluoromethanesulfonyl)imide] | 1500 | –
140 (≈ 38.6 mg/mL) | c1ccc(N2c3ccccc3Sc3ccccc32)cc1 [PhPT, N-phenylphenothiazine] | – | –
– | O=S(=O)([N-]S(=O)(=O)C(F)(F)F)C(F)(F)F.c1ccc(N2c3ccccc3[S+]c3ccccc32)cc1 [PhPT-TFSI, PhPT-bis(trifluoromethanesulfonyl)imide] | 1640 | –
